A short description of one series: Aqueous Solubility Assay. The conditions noted are these: PBS buffer pH 7.4; maximum upper limit 1,000 μM.
Series [1] in a line: Solubility Assay in Organic Excipients. Particulars: maximum upper limit 20,000 μM; for Solubility in MCT (mg/mL): medium chain triglycerides (MCT).
In a further series the target is JAK1 (Homo sapiens (Human), UniProt P23458). The series is described as follows: Biochemical JAK and Tyk2 Kinase Assays (LanthaScreen), JAK1. The conditions noted are these: 25 μM ATP (Km), pIC50 converted to pKi by Cheng-Prusoff. The protocol:
(§1) Assay 1: Biochemical JAK and Tyk2 Kinase Assays
(§2) A panel of four LanthaScreen JAK biochemical assays (JAK1, 2, 3 and Tyk2) were carried in a common kinase reaction buffer (50 mM HEPES, pH 7.5, 0.01% Brij-35, 10 mM MgCl2, and 1 mM EGTA). Recombinant GST-tagged JAK enzymes and a GFP-tagged STAT1 peptide substrate were obtained from Life Technologies.
(§3) Serially or discretely diluted compounds were pre-incubated with each of the four JAK enzymes and the substrate in white 384-well microplates (Corning) at ambient temperature for 1 h. ATP was subsequently added to initiate the kinase reactions in 10 μL total volume, with 1% DMSO. The final enzyme concentrations for JAK1, 2, 3 and Tyk2 are 4.2 nM, 0.1 nM, 1 nM, and 0.25 nM respectively; the corresponding Km ATP concentrations used are 25 μM, 3 μM, 1.6 μM, and 10 μM; while the substrate concentration is 200 nM for all four assays. Kinase reactions were allowed to proceed for 1 hour at ambient temperature before a 10 μL preparation of EDTA (10 mM final concentration) and Tb-anti-pSTAT1 (pTyr701) antibody (Life Technologies, 2 nM final concentration) in TR-FRET dilution buffer (Life Technologies) was added. The plates were allowed to incubate at ambient temperature for 1 h before being read on the EnVision reader (Perkin Elmer). Emission ratio signals (520 nm/495 nm) were recorded and utilized to calculate the percent inhibition values based on DMSO and background controls.
(§4) For dose-response analysis, percent inhibition data were plotted vs. compound concentrations, and IC50 values were determined from a 4-parameter robust fit model with the Prism software (GraphPad Software). Results were expressed as pIC50 (negative logarithm of IC50) and subsequently converted to pKi (negative logarithm of dissociation constant, Ki) using the Cheng-Prusoff equation.
(Time-resolved FRET reads energy transfer from a long-lived donor to a nearby acceptor.)

The target of the next series is JAK3 (Homo sapiens (Human), UniProt P52333). The series is described as follows: Biochemical JAK and Tyk2 Kinase Assays (LanthaScreen), JAK3. Particulars: 1.6 μM ATP (Km), pIC50 converted to pKi by Cheng-Prusoff; for Ki: read-out: JAK 3 (pKi) (converted). The protocol:
as §1, §2, §3, §4

Another series deals with Caco-2 cell monolayer. The series is described as follows: Caco-2 Permeation Assay. It is filed as in vitro ADME. Particulars: Papp, 5 μM compound; for Cacoverap Kp 10^−6 cm/sec: A→B in the presence of 25 μM verapamil (P-gp inhibitor); for Caco Kp 10^−6 cm/sec: apical to basal (A→B). As for the experimental part:
Assay 3: Caco-2 Permeation Assay
The Caco 2 permeability assay was used as a surrogate for assessment of skin permeability. This assay measures the in vitro permeability across a monolayer of Caco-2 cells, which morphologically and functionally resemble the enterocytes of the small intestine.
CacoReady 24-well transwell plates were obtained from ADMEcell (Alameda, Calif.). The compounds were evaluated at a concentration of 5 μM from 10 mM DMSO stock solutions in duplicate (n=2). Transport in the apical to basal (A→B) direction was determined in Caco 2 cell monolayers. From these values the apparent permeability (Papp) was calculated. To inform on the potential of the compound to be a P-gp substrate, the transport of the compound across the Caco-2 cell monolayer was also determined in the presence of 25 μM of the known P-gp inhibitor verapamil (Yusa and Tsuruo et al., Cancer Research, vol. 49, no. 18, 1989, pp. 5002-06).
Caco-2 culture media consisted of standard filtered DMEM, FCS 10%, L-Glutamine 1%, and PenStrep 1%. The experiment was conducted at 37° C. and in a CO2 (5%) incubator. The basal assay plate was prepared by adding 750 pt of transport buffer to A→B wells. A CacoReady™ plate was prepared by removing the Caco-2 media from the apical wells and replacing with fresh transport media (200 pt repeated for a total of 3 washes). Blank media (200 μL) was then replaced with diluted compound. To begin the incubation, the basal plate was removed from the incubator and the apical section was added on top of it. Samples were collected from the apical and basal compartments for time zero (t0). Samples were collected again after 120 minutes (t120) from the apical and basal compartments. All samples were diluted and prepared for bioanalysis by LC-MS/MS. The permeability coefficients (Papp, mean A to B) and (Papp, mean A to B+Verapamil) in cm/sec were calculated as dQ (flux)/(dt×Area×concentration).
In this assay, a compound with a Papp value of more than about 12×10−6 cm/sec is considered to have high permeability.
A general note: Caco-2 cells form a polarised layer with tight junctions and transporters.

For series [2], the system named is IL-2 stimulated pSTAT5 in Tall-1 T cells. The series is described as follows: Inhibition of IL-2 Stimulated pSTAT5 in Tall-1 T Cells. It is filed as cell-based. The conditions noted are these: Tall-1 human T cell line, IL-2 300 ng/mL, AlphaLisa; read-out: Tall-1 IL2 pSTAT5 (pIC50) (converted). As for the experimental part:
Assay 2: Inhibition of IL-2 Stimulated pSTAT5 in Tall-1 T Cells
The potency of test compounds for inhibition of interleukin-2 (IL-2) stimulated STATS phosphorylation was measured in the Tall-1 human T cell line (DSMZ) using AlphaLisa. Because IL-2 signals through JAK1/3, this assay provides a measure of JAK1/3 cellular potency.
Phosphorylated STATS was measured via the AlphaLISA SureFire Ultra pSTAT5 (Tyr694/699) kit (PerkinElmer). Human T cells from the Tall-1 cell line were cultured in a 37° C., 5% CO2 humidified incubator in RPMI (Life Technologies) supplemented with 15% Heat Inactivated Fetal Bovine Serum (FBS, Life Technologies), 2 mM Glutamax (Life Technologies), 25 mM HEPES (Life Technologies) and 1× Pen/Strep (Life Technologies). Compounds were serially diluted in DMSO and dispensed acoustically to empty wells. Assay media (phenol red-free DMEM (Life Technologies) supplemented with 10% FBS (ATCC)) was dispensed (4 μL/well) and plates shaken at 900 rpm for 10 mins. Cells were seeded at 45,000 cells/well in assay media (4 μL/well), and incubated at 37° C., 5% CO2 for 1 hour, followed by the addition of IL-2 (R&D Systems; final concentration 300 ng/mL) in pre-warmed assay media (4 μL) for 30 minutes. After cytokine stimulation, cells were lysed with 6 ul of 3× AlphaLisa Lysis Buffer (PerkinElmer) containing 1× PhosStop and Complete tablets (Roche). The lysate was shaken at 900 rpm for 10 minutes at room temperature (RT). Phosphorylated STATS was measured via the pSTAT5 AlphaLisa kit (PerkinElmer). Freshly prepared acceptor bead mixture was dispensed onto lysate (51) under green filtered <100 lux light. Plates were shaken at 900 rpm for 2 mins, briefly spun down, and incubated for 2 hrs at RT in the dark. Donor beads were dispensed (5 μL) under green filtered <100 lux light. Plates were shaken at 900 rpm for 2 minutes, briefly spun down, and incubated overnight at RT in the dark. Luminescence was measured with excitation at 689 nm and emission at 570 nm using an EnVision plate r reader (PerkinElmer) under green filtered <100 lux light.
To determine the inhibitory potency of test compounds in response to IL-2, the average emission intensity of beads bound to pSTAT5 was measured in a human T cell line. IC50 values were determined from analysis of the inhibition curves of signal intensity versus compound concentration. Data are expressed as pIC50 (negative decadic logarithm IC50) values (mean±standard deviation).

Another series in a line: physchem. The conditions noted are these: thermodynamic from solid.
Setting [3] is: oil or lipid, Solubility in MCT (mg/mL).
Setting [4] is: organic solvent or mixture, Solubility in Diisopropyl adipate (mg/mL).
Where [5] appears, read: organic solvent or mixture, Solubility in PEG400 (mg/mL).
The mark [6] stands for this setting: organic solvent or mixture, Solubility in Propylene glycol (mg/mL).

Structures are written as SMILES. Values after ≈ are worked out from the molar mass of the structure shown.

Six compounds from patent US11439641B2, “Pyrimidine JAK inhibitors for the treatment of skin diseases” (THERAVANCE BIOPHARMA R&D IP, LLC, priority 2019, dated 2022) can be followed below.

Sequence of JAK3 (P52333 whole entry): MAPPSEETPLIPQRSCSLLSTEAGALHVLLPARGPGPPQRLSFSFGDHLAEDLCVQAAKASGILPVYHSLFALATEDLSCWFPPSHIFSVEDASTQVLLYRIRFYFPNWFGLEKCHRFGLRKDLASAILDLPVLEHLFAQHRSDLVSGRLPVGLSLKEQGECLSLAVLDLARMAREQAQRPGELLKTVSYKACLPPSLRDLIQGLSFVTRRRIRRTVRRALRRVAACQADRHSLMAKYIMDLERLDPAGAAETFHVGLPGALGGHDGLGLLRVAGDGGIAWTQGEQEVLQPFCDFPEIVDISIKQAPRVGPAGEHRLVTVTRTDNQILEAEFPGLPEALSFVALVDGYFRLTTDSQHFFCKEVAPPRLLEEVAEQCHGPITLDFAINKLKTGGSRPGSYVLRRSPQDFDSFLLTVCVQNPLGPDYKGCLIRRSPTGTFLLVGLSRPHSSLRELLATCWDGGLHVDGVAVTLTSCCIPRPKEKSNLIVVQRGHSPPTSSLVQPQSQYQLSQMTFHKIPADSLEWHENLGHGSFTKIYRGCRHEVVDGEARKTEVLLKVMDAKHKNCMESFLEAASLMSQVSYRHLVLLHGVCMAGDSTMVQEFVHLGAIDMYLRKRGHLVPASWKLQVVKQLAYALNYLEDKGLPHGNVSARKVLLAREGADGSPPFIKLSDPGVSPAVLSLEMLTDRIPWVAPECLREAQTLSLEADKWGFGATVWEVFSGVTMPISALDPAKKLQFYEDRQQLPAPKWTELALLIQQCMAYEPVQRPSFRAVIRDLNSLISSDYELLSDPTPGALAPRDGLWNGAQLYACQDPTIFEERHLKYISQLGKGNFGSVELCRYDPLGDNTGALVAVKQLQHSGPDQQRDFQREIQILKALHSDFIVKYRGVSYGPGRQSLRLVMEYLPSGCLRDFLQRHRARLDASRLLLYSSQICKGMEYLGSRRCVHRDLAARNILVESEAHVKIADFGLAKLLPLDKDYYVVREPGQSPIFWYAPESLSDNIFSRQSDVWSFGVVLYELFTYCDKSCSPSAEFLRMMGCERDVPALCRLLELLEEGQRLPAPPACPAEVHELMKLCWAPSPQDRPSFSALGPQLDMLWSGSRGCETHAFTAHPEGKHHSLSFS
Sequence of JAK1 (P23458 whole entry): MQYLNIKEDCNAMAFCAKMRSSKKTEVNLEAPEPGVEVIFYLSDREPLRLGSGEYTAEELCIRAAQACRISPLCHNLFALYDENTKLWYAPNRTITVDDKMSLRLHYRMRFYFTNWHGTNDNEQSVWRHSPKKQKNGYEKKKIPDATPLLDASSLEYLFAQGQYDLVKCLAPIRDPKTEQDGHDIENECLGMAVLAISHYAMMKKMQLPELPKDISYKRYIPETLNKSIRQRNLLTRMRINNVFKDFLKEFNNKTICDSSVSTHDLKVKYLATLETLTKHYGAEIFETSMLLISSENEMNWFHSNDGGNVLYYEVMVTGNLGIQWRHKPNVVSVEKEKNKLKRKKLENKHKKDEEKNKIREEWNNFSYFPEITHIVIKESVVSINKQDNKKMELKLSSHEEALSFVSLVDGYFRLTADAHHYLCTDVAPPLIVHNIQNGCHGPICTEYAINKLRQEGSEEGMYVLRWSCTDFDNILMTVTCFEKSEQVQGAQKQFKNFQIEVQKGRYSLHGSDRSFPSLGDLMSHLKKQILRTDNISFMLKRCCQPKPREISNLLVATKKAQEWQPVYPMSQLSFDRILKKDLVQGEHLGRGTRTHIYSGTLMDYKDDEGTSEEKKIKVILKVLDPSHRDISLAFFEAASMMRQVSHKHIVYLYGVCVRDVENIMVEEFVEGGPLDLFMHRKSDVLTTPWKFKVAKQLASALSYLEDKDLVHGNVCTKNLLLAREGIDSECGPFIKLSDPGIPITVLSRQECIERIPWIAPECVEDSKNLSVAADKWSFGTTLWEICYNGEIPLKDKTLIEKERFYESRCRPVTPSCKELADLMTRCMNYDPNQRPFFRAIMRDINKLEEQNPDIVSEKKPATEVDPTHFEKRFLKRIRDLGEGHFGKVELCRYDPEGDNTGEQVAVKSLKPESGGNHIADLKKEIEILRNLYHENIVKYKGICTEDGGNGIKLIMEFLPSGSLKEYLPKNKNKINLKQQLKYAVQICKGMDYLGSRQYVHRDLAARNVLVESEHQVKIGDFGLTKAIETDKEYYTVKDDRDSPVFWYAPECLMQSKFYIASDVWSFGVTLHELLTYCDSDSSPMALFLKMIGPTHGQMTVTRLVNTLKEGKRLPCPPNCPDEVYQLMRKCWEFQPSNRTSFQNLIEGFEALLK
Description for Aqueous Solubility Assay: Assay 5: Aqueous Solubility Assay
The purpose of this assay was to quantify the solubility of test compounds in pH 4 and pH 7.4 PBS buffers. The assay required 40 μL of 10 mM DMSO test compound solution per desired buffer in addition to 20 μL required to make a test standard. For example, to test a compound in both buffers, 100 μL (2*40 μL+20 μL) of 10 mM DMSO compound stock solution was required.
The standard was created by diluting 20 μL of 10 mM DMSO compound stock solution into 180 μL of methanol and was shaken for five minutes to ensure solution uniformity. […] This 1,000 μM solution was run on an Agilent 1260 LC-MS system by injecting 2 μL in order to obtain the peak area. For the test solutions, 40 μL of 10 mM DMSO compound stock solution, per PBS buffer condition, were dried down into a powder overnight. Once in powder form, 400 μL of the desired PBS buffer was added to the powder and allowed to shake vigorously for four hours. The maximum theoretical concentration for this sample solution was 1,000 μM. After four hours of shaking, the samples were centrifuged for 10 minutes at 3,000 RPM before injecting 2 μL on the same Agilent 1260 LC-MS system to obtain the peak area.
In Table 6 below, A represents a value above 500, B represents a value between 250 and 500, C represents a value between 50 and 250, D represents a value between 10 and 50, and E represents a value below 10.

For the compound `Cc1cc(Nc2cc(C3CCCO3)nc(N(C)[C@@H]3C[C@H]4CCC[C@@H](C3)N4CC(=O)N3CCCC3)n2)n[nH]1` (stereo partly drawn) [Compound 16, 2-((1R,3s,5S)-3-(methyl(4-((5-methyl-1H-pyrazol-3-yl)amino)-6-(tetrahydrofuran-2-yl)pyrimidin-2-yl)amino)-9-azabicyclo[3.3.1]nonan-9-yl)-1-(pyrrolidin-1-yl)ethan-1-one], the “Solubility at PH 7.4 (μmol)” value in the series “Aqueous Solubility Assay” is “A (A represents a value above 500)”. In addition, in series [1], the “Solubility in PEG400 (mg/mL)” value is “C (C represents a value below 5)”, the “Solubility in Diisopropyl adipate (mg/mL)” value is reported as “C (C represents a value below 5)”, the “Solubility in MCT (mg/mL)” value is “C (C represents a value below 5)” and the “Solubility in Propylene glycol (mg/mL)” value is “C (C represents a value below 5)”. Moreover, at JAK1, the “JAK 1 (pKi)” value was “A (A represents a pKi value ≥10 (Ki≤0.1 nM))”. In addition, the “JAK 3 (pKi)” value on JAK3 was “C (C represents a pKi value between 8 and 9 (Ki between 10 nM and 1 nM))”.

On to `CCS(=O)(=O)N1[C@@H]2CCC[C@H]1C[C@H](N(C)c1nc(Nc3cc(C)[nH]n3)c(F)c(C3CCOC3)n1)C2` (stereo partly drawn) [Compound 44, N2-((1R,3s,5S)-9-(ethylsulfonyl)-9-azabicyclo[3.3.1]nonan-3-yl)-5-fluoro-N2-methyl-N4-(5-methyl-1H-pyrazol-3-yl)-6-(tetrahydrofuran-3-yl)pyrimidine-2,4-diamine], for which the “Solubility at PH 7.4 (μmol)” value in “Aqueous Solubility Assay” is recorded as “E (E represents a value below 10)”. In addition, on JAK1, the “JAK 1 (pKi)” value was “A (A represents a pKi value ≥10 (Ki≤0.1 nM))”. The “JAK 3 (pKi)” value at JAK3 is “C (C represents a pKi value between 8 and 9 (Ki between 10 nM and 1 nM))”.

In the case of `CCS(=O)(=O)N1[C@@H]2CCC[C@H]1C[C@H](N(C)c1nc(Nc3cc(C)[nH]n3)cc(O[C@H]3CCOC3)n1)C2` [Compound 33, N^2-((1R,3s,5S)-9-(ethylsulfonyl)-9-azabicyclo[3.3.1]nonan-3-yl)-N2-methyl-N4-(5-methyl-1H-pyrazol-3-yl)-6-(((S)-tetrahydrofuran-3-yl)oxy)pyrimidine-2,4-diamine], the “Solubility at PH 7.4 (μmol)” value in the series “Aqueous Solubility Assay” is “D (D represents a value between 10 and 50)”. Also, in series [1], the “Solubility in PEG400 (mg/mL)” value was “B (B represents a value between 5 and 10)”; the “Solubility in Diisopropyl adipate (mg/mL)” value is “C (C represents a value below 5)”; the “Solubility in MCT (mg/mL)” value was “C (C represents a value below 5)”; the “Solubility in Propylene glycol (mg/mL)” value is “A (A represents a value above 10)”. Further, the “JAK 1 (pKi)” value on JAK1 is listed as “A (A represents a pKi value ≥10 (Ki≤0.1 nM))”. Also, the “JAK 3 (pKi)” value at JAK3 was “B (B represents a pKi value between 9 and 10 (Ki between 1 nM and 0.1 nM))”.

With `Cc1cc(Nc2cc(C3CCOCC3)nc(N(C)[C@@H]3C[C@H]4CCC[C@@H](C3)N4C(=O)CC3CC3)n2)n[nH]1` [Compound 4, 2-cyclopropyl-1-((1R,3s,5S)-3-(methyl(4-((5-methyl-1H-pyrazol-3-yl)amino)-6-(tetrahydro-2H-pyran-4-yl)pyrimidin-2-yl)amino)-9-azabicyclo[3.3.1]nonan-9-yl)ethan-1-one], the “Solubility at PH 7.4 (μmol)” value in “Aqueous Solubility Assay” is on record as “E (E represents a value below 10)”. In addition, in series [1], the “Solubility in PEG400 (mg/mL)” value is given as “C (C represents a value below 5)”, the “Solubility in Diisopropyl adipate (mg/mL)” value is recorded as “C (C represents a value below 5)”, the “Solubility in MCT (mg/mL)” value is “C (C represents a value below 5)” and the “Solubility in Propylene glycol (mg/mL)” value is reported as “C (C represents a value below 5)”. Also, the “JAK 1 (pKi)” value at JAK1 is reported as “A (A represents a pKi value ≥10 (Ki≤0.1 nM))”. In addition, at JAK3, the “JAK 3 (pKi)” value was “B (B represents a pKi value between 9 and 10 (Ki between 1 nM and 0.1 nM))”.

Regarding `COC(=O)N1[C@@H]2CCC[C@H]1C[C@H](N(C)c1nc(Nc3cc(C)[nH]n3)cc(OC3COC3)n1)C2` [Compound 36], the “Cacoverap Kp 10^−6 cm/sec” value in the series with Caco-2 cell monolayer is “B (B represents a value between 20×10^−6 and 35×10^−6 cm/sec)”. For the same compound, the “Caco Kp 10^−6 cm/sec” value with Caco-2 cell monolayer was “B (B represents a value between 15×10^−6 and 30×10^−6 cm/sec)”. Moreover, the Ki on JAK1 (read-out: JAK 1 (pKi) (converted)) is 0.1 to 1 nM; at JAK3 it was 1 to 10 nM. Also, the IC50 in series [2] was no more than 10 nM. Moreover, the solubility (commonly the dissolved amount per volume that the medium holds) at 4 h in the series “physchem” (setting [3]) was less than 5000 µg/mL; in the series “physchem” (setting [4]), 5000 to 10000 µg/mL (≈ 10.9 to 21.9 mM); in “physchem” (setting [5]), greater than 10000 µg/mL; in “physchem” (setting [6]) it was greater than 10000 µg/mL.

Consider `CCNC(=O)CN1[C@@H]2CCC[C@H]1C[C@H](N(C)c1nc(Nc3cc(C)[nH]n3)cc(O[C@@H]3CCOC3)n1)C2` [Compound 20], for which, in the series with Caco-2 cell monolayer, the “Cacoverap Kp 10^−6 cm/sec” value is “B (B represents a value between 20×10^−6 and 35×10^−6 cm/sec)”. Moreover, the “Caco Kp 10^−6 cm/sec” value with Caco-2 cell monolayer was “B (B represents a value between 15×10^−6 and 30×10^−6 cm/sec)”. In addition, the “JAK 1 (pKi)” value on JAK1 is listed as “A (A represents a pKi value ≥10 (Ki≤0.1 nM))”. For the same compound, the Ki on JAK3 was 0.1 to 1 nM. Also, the IC50 in series [2] was no more than 10 nM. The solubility at 4 h in “physchem” (setting [3]) is less than 5000 µg/mL; in “physchem” (setting [4]), greater than 10000 µg/mL; in the series “physchem” (setting [5]) it was greater than 10000 µg/mL; in “physchem” (setting [6]), greater than 10000 µg/mL.
